Laboratory results as given in patent US20100105694A1, “SUBSTITUTED PYRAZINONE DERIVATIVES FOR USE AS A MEDICINE” (priority 2006, published 2010).

How the values were obtained:
[1] = molecular target: T1, human adrenergic-α2C receptor (Homo sapiens, UniProt P18825); assay: Radioligand binding experiment for α2C-adrenoceptor ([3H]raulwolscine, CHO cell membranes); conditions: [3H]raulwolscine 1 nM, membranes of CHO cells transfected with human α2C receptor; read-out: h-α2C pIC50 (converted)
T1 construct: expressed in transfected cells; host or cells: CHO cells, stably transfected; membranes
T1 sequence (P18825 1-462): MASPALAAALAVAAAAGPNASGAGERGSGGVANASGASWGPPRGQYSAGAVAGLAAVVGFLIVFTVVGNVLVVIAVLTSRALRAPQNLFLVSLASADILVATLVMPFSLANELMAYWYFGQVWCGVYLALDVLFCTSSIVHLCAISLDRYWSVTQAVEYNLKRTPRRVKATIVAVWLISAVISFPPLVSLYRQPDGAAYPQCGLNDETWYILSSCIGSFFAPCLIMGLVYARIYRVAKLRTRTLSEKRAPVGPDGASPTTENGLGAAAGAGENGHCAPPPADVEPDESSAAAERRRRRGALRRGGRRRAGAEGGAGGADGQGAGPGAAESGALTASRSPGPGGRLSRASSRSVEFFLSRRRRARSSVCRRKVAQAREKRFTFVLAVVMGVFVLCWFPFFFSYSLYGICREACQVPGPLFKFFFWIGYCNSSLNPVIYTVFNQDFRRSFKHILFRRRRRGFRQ
Procedure: (§1) The interaction of a compound of Formula (I) with α2C-adrenoceptor receptors was assessed in in vitro radioligand binding experiments. In general, a low concentration of a radioligand with a high binding affinity for a particular receptor or transporter is incubated with a sample of a tissue preparation enriched in a particular receptor or transporter or with a preparation of cells expressing cloned human receptors in a buffered medium. During the incubation, the radioligand binds to the receptor or transporter. When equilibrium of binding is reached, the receptor bound radioactivity is separated from the non-bound radioactivity, and the receptor- or transporter-bound activity is counted. The interaction of the test compounds with the receptor is assessed in competition binding experiments. Various concentrations of the test compound are added to the incubation mixture containing the receptor- or transporter preparation and the radioligand. The test compound in proportion to its binding affinity and its concentration inhibits binding of the radioligand. The radioligand used for hα2A and hα2C receptor binding was [^3H]-raulwolscine.
(§2) CHO cells, stabile transfected with human adrenergic-α2A and α2C receptor cDNA, were cultured in Dulbecco's Modified Eagle's Medium (DMEM)/Nutrient mixture Ham's F12 (ratio 1:1) (Gibco, Gent-Belgium) supplemented with 10% heat inactivated fetal calf serum (Life Technologies, Merelbeke-Belgium) and antibiotics (100 IU/ml penicillin G, 100 μg/ml streptomycin sulphate, 110 μg/ml pyruvic acid and 100 μg/ml L-glutamine). One day before collection, cells were induced with 5 mM sodiumbutyrate. Upon 80-90% of confluence, cells were scraped in phosphate buffered saline without Ca^2+ and Mg^2+ and collected by centrifugation at 1500×g for 10 minutes. The cells were homogenised in Tris-HCl 50 mM using an Ultraturrax homogenizer and centrifuged for 10 minutes at 23,500×g. The pellet was washed once by resuspension and rehomogenization and the final pellet was resuspended in Tris-HCl, divided in 1 ml aliquots and stored at −70° C.
(§3) Membranes were thawed and re-homogenized in incubation buffer (glycylglycine 25 mM, pH 8.0). […] Filters were rinsed extensively with ice-cold rinsing buffer (Tris-HCl 50 mM pH 7.4). Filter-bound radioactivity was determined by scintillation counting in a Topcount (Packard, Meriden, Conn.) and results were expressed as counts per minute (cpm). Non-specific binding was determined in the presence of 1 μM oxymetazoline for the hα2A receptor and 1 μM spiroxatrine for hα2C receptors.
(§4) Data from assays in the presence of compound were calculated as a percentage of total binding measured in the absence of test compound. Inhibition curves, plotting percent of total binding versus the log value of the concentration of the test compound, were automatically generated, and sigmoidal inhibition curves were fitted using non-linear regression. The pIC50 values of test compounds were derived from individual curves.

[2] = molecular target: T2, human adrenergic-α2A receptor (Homo sapiens, UniProt P08913); assay: Radioligand binding experiment for hα2A receptor ([3H]raulwolscine, CHO cell membranes); conditions: [3H]raulwolscine 1 nM, membranes of CHO cells transfected with human α2A receptor; read-out: h-α2A pIC50 (converted)
T2 construct: expressed in transfected cells; host or cells: CHO cells, stably transfected; membranes
T2 sequence (P08913 1-465): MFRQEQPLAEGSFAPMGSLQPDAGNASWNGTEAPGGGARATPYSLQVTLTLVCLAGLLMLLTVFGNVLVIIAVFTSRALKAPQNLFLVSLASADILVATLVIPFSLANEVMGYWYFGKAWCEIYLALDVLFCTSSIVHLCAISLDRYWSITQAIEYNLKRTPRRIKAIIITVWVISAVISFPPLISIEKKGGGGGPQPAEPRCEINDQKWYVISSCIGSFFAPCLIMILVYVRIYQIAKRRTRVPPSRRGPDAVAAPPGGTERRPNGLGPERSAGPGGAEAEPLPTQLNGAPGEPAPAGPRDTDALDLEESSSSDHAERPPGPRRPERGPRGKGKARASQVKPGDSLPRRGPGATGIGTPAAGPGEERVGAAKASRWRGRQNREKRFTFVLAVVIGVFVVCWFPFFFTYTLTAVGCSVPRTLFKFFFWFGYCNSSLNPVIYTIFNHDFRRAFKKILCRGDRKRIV
Procedure: as §1, §2, §3, §4

[3] = molecular target: T3, 5HT-Transporter (Homo sapiens, UniProt P31645); assay: Binding experiment for the 5HT-transporter ([3H]paroxetine, human platelet membranes); conditions: [3H]paroxetine 0.5 nM, read-out: h-5HTT pIC50 (converted)
T3 construct: Human platelet membranes (Oceanix Biosciences Corporation, Hanover, Md., USA) were thawed; tissue Oceanix Biosciences Corporation; host or cells: human platelet membranes
T3 sequence (P31645 whole entry): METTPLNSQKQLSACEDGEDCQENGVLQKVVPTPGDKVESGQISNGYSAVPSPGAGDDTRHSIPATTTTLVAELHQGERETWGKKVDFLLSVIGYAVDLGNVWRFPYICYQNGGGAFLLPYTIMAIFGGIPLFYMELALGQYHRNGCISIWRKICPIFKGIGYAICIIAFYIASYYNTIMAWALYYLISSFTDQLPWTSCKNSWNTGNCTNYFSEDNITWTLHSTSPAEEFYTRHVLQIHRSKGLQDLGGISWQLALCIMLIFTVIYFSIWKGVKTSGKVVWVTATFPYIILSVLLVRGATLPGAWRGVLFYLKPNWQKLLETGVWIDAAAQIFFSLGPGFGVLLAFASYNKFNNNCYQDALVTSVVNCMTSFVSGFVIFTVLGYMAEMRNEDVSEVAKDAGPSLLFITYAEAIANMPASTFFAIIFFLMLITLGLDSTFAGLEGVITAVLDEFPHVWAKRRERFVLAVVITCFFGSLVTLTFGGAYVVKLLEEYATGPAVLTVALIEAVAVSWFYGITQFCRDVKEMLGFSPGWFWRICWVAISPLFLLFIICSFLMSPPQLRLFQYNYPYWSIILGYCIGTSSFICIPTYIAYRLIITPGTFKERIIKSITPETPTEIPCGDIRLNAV
Procedure: as §1
Human platelet membranes (Oceanix Biosciences Corporation, Hanover, Md., USA) were thawed, diluted in buffer (Tris-HCl 50 mM, 120 mM NaCl and 5 mM KCl) and quickly (max 3 s) homogenised with an Ultraturrax homogenizer. […] Incubation was stopped by rapid filtration of the incubation mixture over GF/B filters, pre-wetted with 0.1% polyethyleneamine, using a Filtermate196 harvester (Packard, Meriden, Conn.). Filters were rinsed extensively with ice-cold buffer and radioactivity on the filters was counted in a Topcount liquid scintillation counter (Packard, Meriden, Conn.). Data were expressed as cpm. Imipramine (at 1 μM final concentration) was used to determine the non-specific binding.
as §4

Structure (SMILES)	IC50 [1] [nM]	IC50 [2] [nM]	IC50 [3] [nM]
O=c1c(N2CCN(CCc3ccccc3)CC2)nccn1C/C=C/c1ccccc1 [Compound 10-6]	501	1000	5010
O=c1c(N2CCN(CCc3ccccc3)CC2)nccn1Cc1ccc(-c2ccccc2)cc1 [Compound 10-8]	631	794	5010
O=c1c(N2CCN(CCc3ccccc3)CC2)nccn1Cc1ccc2ccccc2c1 [Compound 10-10]	316	501	3160
O=c1c(N2CCN(CCc3ccccc3)CC2)nccn1Cc1ccc(Cl)s1 [Compound 10-11]	200	794	> 10000
COc1ccc(-c2nnc(Cn3ccnc(N4CCN(CCc5ccccc5)CC4)c3=O)o2)cc1 [Compound 10-12]	501	1260	> 10000
CC(C)(C)OC(=O)NCCCn1ccnc(NC2CCN(Cc3ccc(OCc4ccccc4)cc3)CC2)c1=O [Compound 11-3]	631	794	> 10000

Next, values leading:

IC50 [1] [nM]	IC50 [2] [nM]	IC50 [3] [nM]	Structure (SMILES)
631	251	2000	NCc1ccc(Cn2ccnc(NC3CCN(Cc4ccc(OCc5ccccc5)cc4)CC3)c2=O)cc1 [Compound 11-1]
794	794	> 10000	CN(C)CCCn1ccnc(NC2CCN(Cc3ccc(OCc4ccccc4)cc3)CC2)c1=O [Compound 11-2]
794	1580	> 10000	O=c1c(NC2CCN(Cc3ccc(OCc4ccccc4)cc3)CC2)nccn1CCN1CCCCC1 [Compound 11-4]
251	794	3160	O=C1c2ccccc2C(=O)N1CCCn1ccnc(NC2CCN(Cc3ccc(OCc4ccccc4)cc3)CC2)c1=O [Compound 11-5]
794	631	1580	O=c1c(NC2CCN(Cc3ccc(OCc4ccccc4)cc3)CC2)nccn1Cc1cccc(Br)c1 [Compound 11-6]
631	631	1580	O=c1c(NC2CCN(Cc3ccc(OCc4ccccc4)cc3)CC2)nccn1Cc1ccc(Br)cc1 [Compound 11-7]
